# In patent publication US20250213547A1, “METHODS OF TREATING NEUROLOGICAL DISEASES” (priority 2022, published 2025):
# “And” between values parts separate entries of the source, which are not always exact repeats. Equal values may be shown once.
# Assays:
# [1] = Excerpt: The datasets from the clinical trials described above were used in a population PK and PK/PD modeling analysis. Three PK samples were excluded from the analyses because their baseline values were over the limit of quantification. The ELEKTRA dataset contained 69 single-dose and 270 steady-state dose events. Individual variables from those studies were included in the dataset to determine significant covariates and their effect size. Subject variables included the study ID, patient ID, treatment, health status, and DEE disease type. Baseline demographic variables included age, body weight, body mass index, gender, race, and Chinese or Asian ethnic origin. Baseline laboratory variables included aspartate aminotransferase (AST), gamma-glutamyl transferase (GGT), alkaline phosphatase (ALP), bilirubin, creatinine, albumin, alpha-1-acid glycoprotein (A1-AGLP), estimated glomerular filtration rate (eGFR), and creatinine clearance (CrCl)) (see formulas in example 12). […] Another variable was the type of antiepileptic drugs patients were on concomitantly during the trial.
# The dataset included 2193 observations from 173 subjects. Both PK and PK/PD parameters were analyzed as a mixed-effects population model using the computer program NONMEM. A mixed-effects model takes into account fixed value parameters and random-effect parameters. The first stage of the analysis began with using only data obtained from the oral solution studies in a structural and statistical base model to account for concentration changes over time and for between and within subject variability. Several different structural model types were tested and the structure of the omega complex was optimized. Omega, expressed as random effects variance, represents the difference between an individual's parameter value and the population value and describes the distribution of between subject variability across the population. The linear two-compartment model incorporates delayed first-order absorption from oral administration. Model parameters were absorption lag time (ALAG1), bioavailability (F1), elimination clearance (CL), absorption rate constant (KA), central volume (V2), inter-compartmental clearance (Q), and peripheral volume (V3). Random effects were estimated for F1, KA, Q, and V3. The omega matrix was restricted to a diagonal structure, wherein between parameter correlations are ignored. A combined additive and proportional residue error model was utilized to broadly reflect […].
# The second stage of the analysis added data collected from the tablet formulation studies in adults.
# The third stage of the analysis added the pediatric data collected from the ELEKTRA study. A range of different formulations and administration procedures were used for the pediatric patients, including swallowed mini-tablets, tablets, and crushed tablets administered through a gastrostomy tube. […] Next variables were screened separately by correlating the individual random effects with the base model. An F-test was used to determine the significance of the individual random effects with and without the variable. Candidates were further screened using a standard forward inclusion (α<0.05), backward deletion (α<0.01) procedure.
# clinical = conditions: human, in vivo; for AUC: AUC24 / mean steady-state area under the curve
# Procedure: Soticlestat was administered in tablet formulation during fasting condition. […] Blood samples were obtained before the first morning dose, and at 1, 3, and 5 hours post-dose. On days 11 and 21, blood samples were taken before the morning dose and 1 hour post-dose. In Part B, patients were administered 200 mg BID for days 31-40, followed by 300 mg BID for days 41-85. On days 31, 41, and 85, blood samples were taken before the morning dose. […] The AUC24 for doses 100, 200, and 300 mg BID were 562.5, 1437, and 2188 ng×h/mL, respectively.
# Blood samples were collected before and after the morning dose on days 1, 11, and 21, and before and after the morning dose on days 31, 41, and 85.
# [2] = tested on: seizure frequency in developmental and/or epileptic encephalopathy patients; assay: Adult DEE patients: antiseizure efficacy (seizure frequency); assay type: in vivo, human
# Excerpt: The third clinical trial was a randomized, double-blind, placebo controlled study. […] After the completion of Part A, 16 patients continued in Part B with open-label treatment for 60 additional days. Patients were included in the trial if they were 18-65 years of age with an established diagnosis of DEE, such as Lennox-Gastaut syndrome, Dravet syndrome, or tuberous sclerosis complex. For enrollment, patients were required to have had at least two bilateral motor seizures per month in the three months prior. In addition, during the 4-week baseline period prior to dosing, patients were required to have incurred at least one bilateral motor seizure. Exclusion criteria included abnormal ECG, degenerative eye disease, or admission to emergency care for treatment of status epilepticus that required mechanical ventilation.
# Only patients having at least one bilateral seizure during the baseline study were eligible to continue. […] The range of seizure types included tonic-clonic, drop seizures, tonic, atonic, bilateral clonic, myoclonic-atonic, myotonic-tonic-clonic, and focal seizures. Aside from seizure history, subjects were also enrolled based on an establish diagnosis of DEE, such as Lennox-Gastaut syndrome (LGS) and Dravet syndrome (DS), tuberous sclerosis complex, and a history of special education or an overall intellectual quotient of <70. […] Subjects could continue taking 1-4 anti-seizure medicines (ASM), with the exception of stiripentol, during the study.
# FIG. 9A depicts the study paradigm and FIG. 9B depicts the patient disposition. […] Part B consisted of an open-label 85-day extension study to ensure long-term safety and tolerability. The first 20 days of part A consisted of a tolerability titration phase, and thereafter a maintenance phase lasting from days 21-30.
# [3] = between subject variation as standard deviation
structure (smiles),measurement,setting,value
O=C(c1cccnc1-c1ccncc1)N1CCC(O)(Cc2ccccc2)CC1 [soticlestat],simulated change in AUC with twice the dosage,"[1]; FIG. 21, reference ELEKTRA patient 100 mg BID",130%
same,F1: BSV,[1]; [3],0.538
same,KA: BSV,[1]; [3],1.1
same,Q: BSV,[1]; [3],0.369
same,V3: BSV,[1]; [3],0.559
same,ALAG1: Non-OS formulation (%),[1]; covariate effect on ALAG1,25.2%
same,CL: Patient (%),[1]; covariate effect on CL,−24.4%
same,F1: A1-AGLP exponent,[1]; covariate effect on F1,0.739
same,F1: weight exponent,[1]; covariate effect on F1,−0.516
same,F1: Dose exponent,"[1]; covariate effect on F1, fixed",0.204
same,KA: BMI exponent,[1]; covariate effect on KA,2.52
same,KA: Strong Inducer (%),[1]; covariate effect on KA,−73.7%
same,KA: non-OS formulation (%),[1]; covariate effect on KA,−45.7%
same,KA: Dose exponent,"[1]; covariate effect on KA, fixed",−0.753
same,Q: Dose exponent,"[1]; covariate effect on Q, fixed",−0.218
same,V3: Asian (%),[1]; covariate effect on V3,−39.4%
same,V3: eGFI exponent,[1]; covariate effect on V3,−0.469
same,V3: Dose exponent,"[1]; covariate effect on V3, fixed",−0.214
same,ALAG1 typical value,[1]; final population PK model,0.131 h
same,F1: BSV explained by A1-AGLP (%),[1]; final population PK model,33.6%
same,KA typical value,[1]; final population PK model,7.49 h⁻¹
same,Q typical value,[1]; final population PK model,1.16 L/h
same,V2 typical value,[1]; final population PK model,2.99 L
same,V3 typical value,[1]; final population PK model,7.51 L
same,F1 typical value,"[1]; final population PK model, fixed",0.0216
same,CL typical value,[1]; human,4.31 L/h
same,estimated weight exponent on steady state AUC,[1]; human,0.516
same,typical value for CL/F,[1]; human,150 L/h
same,typical value for V2/F (central volume distribution),[1]; population model,138.43 L
same,clearance,clinical; 100 mg,4320 mL/min
same,AUC,clinical; 100 mg,562 ng·h/mL
same,Cmax,"clinical; 100 mg, Cmax steady state, mean",270 ng/mL
same,clearance,clinical; 200 mg,3260 mL/min
same,AUC,clinical; 200 mg,1440 ng·h/mL
same,Cmax,"clinical; 200 mg, Cmax steady state, mean",640 ng/mL
same,clearance,clinical; 300 mg,3170 mL/min
same,AUC,clinical; 300 mg,2190 ng·h/mL
same,Cmax,"clinical; 300 mg, Cmax steady state, mean",975 ng/mL
same,Cmax,"clinical; Study TAK-935-2001, 200 mg BID, Mean, read-out: Cmax, ss",1270 ng/mL
same,"change in seizure frequency from baseline, individual patients","[2]; Part A, three patients treated concurrently with perampanel",+107% and +465% and +4%
same,median percent change from baseline seizure frequency,"[2]; Part B maintenance, days 42-85 (n=16)",−36.38%
same,median percent change from baseline seizure frequency,"[2]; Part B, excluding patients taking perampanel (n=13)",−44.66%
same,"change in seizure frequency from baseline, individual patients","[2]; Part B, three patients taking perampanel",+297% and +398% and +175%
same,median seizure frequency,[2]; all completers except those taking perampanel,25.60 per 28 days
same,reduction in seizure frequency in two patients,[2]; last 4 weeks/month of treatment,100%
same,median percent change from baseline seizure frequency,[2]; last 28 days of Part B (post-hoc),−60.74%
